# According to patent US11311598B2, “Peptides and analogs for use in the treatment of oral mucositis” (Soligenix, Inc., priority 2013, dated 2022):
# “Also recorded” adds a separate entry of the source. Where no end group is shown, it is not given here.
# Tests used:
# male C3H/HeN mice = test: chemotherapy-induced oral and gastrointestinal mucositis in the mouse; format: in vivo
# Experimental: In each study, 5-fluorouracil (60 mg/kg IP) was administered to male C3H/HeN mice on Days −4 and −2. […] […] Body weights were also measured daily and colitis severity was determined by video endoscopy on Days 4 and 7. In the first study, RIVPA (SEQ ID NO. 5) (25 mg/kg IV) was administered either once on Day −4 immediately prior to chemotherapy, twice on Days −4 and −2 immediately after chemotherapy or 3 times on Days −1, 2 and 5. […] In the second study, RIVPA (SEQ ID NO. 5) (25 mg/kg IV) was administered on either Days −1, 2 and 5, Days −1, 1 and 3 or Days 0, 2, and 4. […] In the third study, RIVPA (SEQ ID NO. 5) (25 or 5 mg/kg IV, as indicated) was administered either on Days −1, 2 and 5 or on Days 1 and 3. […] Statistical significance was assessed for oral mucositis using a chi-square analysis and for body weight area under the curve (AUC) with an ANOVA on ranks. […] Treatment with R(tBg)V1KR(tBg)V2 (SEQ ID NO. 91) and RIV(mp2)A-NH2 (SEQ ID NO. 92) was administered on Days −1 and 2 at a dose of 25 mg/kg IV.
# mouse tongue epithelium = test: prevention of radiation-induced mucositis (25 Gy to the mouse snout); format: in vivo; conditions: 25 Gy to mouse snout Day 0; 5 doses of 25 mg/kg IV every second day
# Experimental: RIVPA (SEQ ID NO. 5) and other IDRs modulate the innate defense response to tissue injury, reducing the severity of damage caused by the inflammatory cascade and enhancing resolution of disease. As described above, IDRs can mitigate the response to radiation damage in an oral mucositis model (FIG. 1, FIG. 2). […] Progressive thinning of the mouse tongue was assessed on Days 0, 2, 4, 6, 8, and 10 by histopathological analysis of the number of basal and suprabasal apoptotic, mitotic and total epithelial cells per unit area and per unit length. It is noted that the dose of radiation used (25 Gy) was chosen such that progressive thinning of the tongue epithelium was observed but no overt mucositis occurred.
# male C57BL/6 mice = test: DSS-induced colitis model; format: in vivo, mouse
# Experimental: The ability of IV RIVPA (SEQ ID NO. 5), administered pre-emptively or therapeutically, to directly protect GI mucosal surfaces was confirmed in a DSS-induced colitis model. In this model, DSS was administered as a 3% DSS solution in the drinking water of male C57BL/6 mice from Days 0 to 5 of the study. Colitis was monitored by video endoscopy on Days 7, 14 and 21. RIVPA (SEQ ID NO. 5) (25 mg/kg IV) was administered every third day from Days 0 to 18 (Q3d d0-18), from Days 3 to 18 (Q3d d3-18) or from Days 6 to 18 (Q3d d6-18). […] However, reduction in Day 7 scores was only observed in groups which had received at least 2 doses of RIVPA (SEQ ID NO. 5) by that time (i.e., Q3d d0-18 and Q3d d3-18 but not Q3d d6-18). […] Statistical analysis was undertaken using t-tests and an asterisk indicates statistically significant differences from control (p<0.05).
# mouse normal blood cells = test: proliferation of mouse normal blood cells in vitro; format: cell-based
# human normal blood cells = test: proliferation of human normal blood cells in vitro; format: cell-based
# healthy volunteers = test: Phase 1 study in healthy volunteers, safety (SAD and MAD); format: in vivo, human
# From the text: Clinical experience with RIVPA (SEQ ID NO. 5) was obtained in a Phase 1 Study. The primary objective of the study was to determine the maximum tolerated dose (MTD) of single and repeat ascending doses of RIVPA (SEQ ID NO. 5) injectable solution following IV administration in healthy volunteers. The secondary objectives of this study included the assessment of the dose limiting toxicity (DLT), safety, PK and pharmacodynamic (PD) profiles of RIVPA (SEQ ID NO. 5) after single and repeated ascending IV doses of RIVPA (SEQ ID NO. 5). The study was divided into 2 phases: a single-ascending dose (SAD) phase and a multiple-ascending dose (MAD) phase.
# Single IV doses of RIVPA (SEQ ID NO. 5) were well tolerated up to the maximum tested (8 mg/kg) and daily IV doses were well tolerated up to the maximum tested (6.5 mg/kg for 7 days).
# The most frequently reported TEAEs (observed in more than one subject who received RIVPA (SEQ ID NO. 5) and in a higher proportion (%) than placebo subjects) were study treatment procedure-related events (General Disorders and Administration Site Conditions) such as vessel puncture site haematoma, vessel puncture site reaction and vessel puncture site pain. All vessel puncture-related events were mild and determined to be unrelated to study treatment by the QI. The second most frequently reported TEAEs were Nervous System Disorders, specifically headache and dizziness; these events were only mild to moderate. All other TEAEs were reported by only 1 subject at any given dose level (maximum of 3 dose levels).
# The incidence of “possibly-related” events was also higher in the 2 highest dose levels. However, due to the small sample sizes (4 subjects received active treatment in each cohort), it was not possible to conclude whether the results definitely represented a dose-response. The majority of the TEAEs were not related to study treatment and were mild in severity with only one event reported as moderate. The most frequently reported TEAEs for subjects who received RIVPA (SEQ ID NO. 5) were General Disorders and Administration Site Conditions (i.e., procedure-related events) such as vessel puncture site haematoma, vessel puncture site reaction, and vessel puncture site pain. All vessel puncture-related events were mild and judged to be unrelated to treatment. Increased alanine aminotransferase (ALT) and back pain were reported by 3 (15.0%) subjects who received RIVPA (SEQ ID NO. 5) and these events were observed by only one (10.0%) subject who received the placebo.
# [1] = mouse, 5-fluorouracil chemotherapy model, RIVPA IV
# [2] = multiple ascending dose phase, subjects who received RIVPA
substance,measurement,setting,value
"RIVPA-NH2 [RIVPA (SEQ ID NO. 5), RIVPA]",treatment effectiveness on mucositis,"male C3H/HeN mice; first study, 25 mg/kg IV 3 times on Days −1, 2 and 5",most effective
same,duration of severe oral mucositis,"male C3H/HeN mice; mouse, 5-fluorouracil 60 mg/kg IP Days −4 and −2, chemical burn of tongue Day 0, RIVPA IV",reduces; also recorded: statistically significant reduction
same,body weight loss,male C3H/HeN mice; [1],reduces
same,severity of colitis (video endoscopy),male C3H/HeN mice; [1],reduces; also recorded: trend towards reduced colitis
same,efficacy at decreased dose levels,"male C3H/HeN mice; third study, 5 vs 25 mg/kg IV",decreased efficacy
same,treatment effectiveness on mucositis,"male C3H/HeN mice; third study, dosing every third day (Days −1, 2 and 5)",most effective
same,disease progression (progressive thinning of the mouse tongue),mouse tongue epithelium,did not have any significant impact
same,endoscopic colitis severity score,"male C57BL/6 mice; Day 7, Q3d d0-18",reduction
same,endoscopic colitis severity score,"male C57BL/6 mice; Day 7, Q3d d3-18",reduction
same,endoscopic colitis severity score,"male C57BL/6 mice; Day 14, all regimens, 25 mg/kg IV every third day",statistically significant reduction
same,endoscopic colitis response,"male C57BL/6 mice; Day 21, all 3 treatment groups",responding in a similar manner
same,"edema and necrosis, histopathology of the colon","male C57BL/6 mice; Day 21, some RIVPA treated groups",statistically significantly decreased
same,severity of DSS-induced colitis,"male C57BL/6 mice; endoscopy days 7, 14, 21 and histopathology day 21, FIG. 3",reduces
same,proliferation of normal blood cells,mouse normal blood cells,did not promote the proliferation
same,proliferation of normal blood cells,human normal blood cells,did not promote the proliferation
same,"vital sign measurements, clinical laboratory or ECG results versus placebo",healthy volunteers; Phase 1,No safety concerns or significant differences
same,deaths and serious Adverse Events,"healthy volunteers; Phase 1, SAD and MAD","no deaths and no clinically significant, severe, or serious Adverse Events"
same,dose limiting toxicities (DLTs),"healthy volunteers; Phase 1, SAD and MAD",no dose limiting toxicities
same,MTD,healthy volunteers; either phase of the trial,not reached
same,daily IV doses well tolerated up to the maximum tested,"healthy volunteers; healthy volunteers, daily for 7 days",≤ 6.5 mg/kg
same,single IV doses well tolerated up to the maximum tested,"healthy volunteers; healthy volunteers, single-ascending dose phase",≤ 8 mg/kg
same,incidence of TEAEs,"healthy volunteers; multiple ascending dose phase, 4.5 and 6.5 mg/kg/day",highest incidence
same,Increased alanine aminotransferase (ALT),healthy volunteers; [2],3 (15.0%) subjects
same,back pain,healthy volunteers; [2],3 (15.0%) subjects
same,incidence of TEAEs,healthy volunteers; single ascending dose phase,not dose-related
